Source: patent US20060228412A1, “(-)-Hydroxycitric acid for delaying gastric emptying” (priority 2003, published 2006)

How the values were obtained:
[1] = cited from earlier work
[2] = at the end of 80 days; cited from earlier work
[3H]-5-HT uptake = isolated rat brain cortical slices; cited from earlier work
[3] = mice on a 10% sucrose diet; cited from earlier work
[4] = Multi-week pilot open clinical weight loss trial with extremely obese patients; type: in vivo, human
Excerpt: In the present studies, data on human usage emerged from a multi-week pilot open clinical weight loss trial with extremely obese patients which was undertaken to gauge the effects of a pouch delivery form of a potassium salt of HCA under the normal circumstances faced in clinical practice with this patient population. Sixteen patients were enrolled, three of whom were diabetics on medications and several others who were suspected of suffering from insulin resistance. The patients ingested 3-4 grams of HCA (in the form of the potassium salt) per day in two divided doses. Aside from being informed that they must eat a carbohydrate-containing meal within one hour of taking the HCA and that they should avoid eating late in the day, they were not instructed to follow any special diet or exercise plan outside their normal habits and no caloric restriction was imposed. This particular form of potassium HCA delivery typically was mixed into water or juice and consumed at mid-morning and mid-afternoon. The delivery was a water-soluble immediate release form. It was a pre-commercial preparation and nearly all of the patients complained regarding the inconvenience and poor taste of the product, albeit there were no other issues of tolerability.
A number of patients continued on the program for 6 weeks. However, most patient data was good for only 3 weeks because two of the diagnosed diabetics experienced severe hypoglycemic reactions. […] Two patients subsequently were placed on phentermine. […] The average weight loss over the 3 week period for these 14 patients was approximately 3.1 pounds per person per week. […] At therapeutically effective dosages, HCA probably should be used with diabetic populations only under a physician's care.

[5] = Blood glucose after HCA meal replacement releasing only in the small intestine; type: in vivo, human
Excerpt: In Example 1, the HCA was delivered in an immediate-release preparation. Our unexpected findings with regard to blood sugar led to the hypothesis that a relatively large dose of HCA might affect blood sugar levels in an individual whose blood sugar is in the low normal range. A dose of 1.5 grams HCA derived from potassium HCA and delivered in a special coated form designed to bypass interaction with stomach acids and to release only in the higher pH of the small intestine was used. A potassium HCA salt granulate was prepared according to Example 1 found in U.S. Pat. No. 6,447,807 and delivered via a dry powdered meal replacement designed to be mixed with liquid to provide 1.5 grams of HCA per 350 calories plain (mixed with water) or approximately 500 calories with milk. […] The subject ate a 500 calorie breakfast consisting the experimental HCA meal replacement. Two hours after this meal, subject's blood glucose level had dropped to 77 mg/dL. […] This finding seemed paradoxical in that the outstanding metabolic effect, which might be thought to indicate blood levels of the drug, was not matched by even a normal level of feelings of fullness. This implied that at least part of the satiation induced by HCA comes about prior to entry of the compound into the blood. […]

[6] = Capsaicin-HCA interaction satiety test; type: in vivo, human; details: 5 individuals, approximately 2 grams in water about an hour before a meal; before red pepper sauce
Excerpt: The meal itself began with a soup course. […] At this point, bottles of red pepper sauce were supplied and the sauce was applied liberally. […] As is true of Example 3, this provides indirect evidence that HCA acts upon a CCK-related mechanism in inducing satiety.

[7] = Immediacy of HCA-induced satiety, lemonade-like drinks prior to a meal; type: in vivo, human; details: 5 individuals, approximately 2 grams in sweetened lemonade-like drinks, 16-24 ounces, about 200 calories
Description: To test this theory, and the palatability of an HCA salt when mixed with various flavors, a study was conducted in which 5 individuals consumed approximately 2 grams potassium HCA mixed in sweetened lemonade-like drinks prior to a meal. Consumption of the drinks took place over the course of approximately one half hour and involved 16-24 ounces of fluid, but only about 200 calories.

SMILES	Reduction in food consumption ([1]; experimental animals fed a high-sugar diet, single large oral dose or two divided oral doses)	Minimum effective dose, once per day ([1]; oral, once per day)	Minimum effective dose, twice per day ([1]; oral, twice per day)	Net reduction in food intake compared with controls [2]	Reduction in weight gain [2]	[3H]-5-HT uptake ([3H]-5-HT uptake)	Leptin/white adipose tissue ratio compared with control [3]	Serum insulin compared with control [3]	Serum leptin compared with control [3]	Average weight loss ([4]; 3 week period, 14 patients, 3-4 grams HCA per day in two divided doses, immediate release pouch form)	Blood pressure ([4]; eight patients with hypertension)	Effect on blood sugar in diabetics ([4]; immediate release format, two diagnosed diabetics had severe hypoglycemic reactions)	Weight loss of one patient ([4]; over 10 weeks)	Appetite suppression ([4]; several patients)	Anorectic action / feelings of fullness ([5]; delivery to the small intestine, by-passing the stomach)	Blood glucose level ([5]; two hours after 500 calorie meal with 1.5 grams HCA, coated form released in small intestine, fasting level before 85 mg/dL, one subject)	Feeling of fullness [6]	Satiety [7]
O=C(O)CC(O)(C(=O)O)C(O)C(=O)O (single isomer, unassigned; (-)) [HCA, (−)-hydroxycitric acid]	≥ 10%	2.63 mmol/kg	0.33 mmol/kg	4%	78%	inhibit	lower	lower	lower									
O=C([O-])CC(O)(C(=O)[O-])C(O)C(=O)[O-].[K+].[K+].[K+] (stereo not drawn) [potassium HCA]										approximately 3.1 pounds per person per week	normalize blood pressure	strong hypoglycemic effect	32 pounds	good appetite suppression	blunt the anorectic actions	77 mg/dL	felt full very soon	satiated soon after the meal began
